Test results published in patent publication US20260116845A1, “LIPIDS AND COMPOSITIONS THEREOF” (Kernal Biologics, Inc., priority 2023, published 2026).

Legend:
Liver = assay: Ex-vivo luminescence signal from liver after IV Fluc mRNA LNPs in CD1 mice (IVIS); details: tail vein 1.0 mg/kg Day 0 and Day 2, imaging 18 hours after second dose, Table 4
MC38.K Cell Line = assay: Transfection of MC38.K Cell Line with FLuc mRNA LNPs (ONE-Glo EX luciferase signal); assay type: cell-based; details: 200 ng Fluc mRNA-LNP, 24 hours; Table 4
Summary of the method: (§1)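 Firefly luciferase luminescence measured 24 h after transfection with 200 ng mRNA-LNP per well in Opti-MEM. Seeding: 5,000 cells/well for B16F10 and MC38.K, 20,000 for AML12. LNPs were pre-incubated 30 min with mouse serum; mRNA content determined by RiboGreen.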

AML12 Cell Line = assay: Transfection of AML12 Cell Line with FLuc mRNA LNPs (ONE-Glo EX luciferase signal); assay type: cell-based; details: 200 ng Fluc mRNA-LNP, 24 hours; Table 4
Summary of the method: as §1

B16F10 Cell Line = assay: Transfection of B16F10 Cell Line with FLuc mRNA LNPs (ONE-Glo EX luciferase signal); assay type: cell-based; details: 200 ng Fluc mRNA-LNP, 24 hours; Table 4
Summary of the method: as §1

SMILES	Total Liver Tissue Luciferin Signal (Photons/s) Ex-vivo - CD1 (Liver)	Total Luciferin Signal (RLU) In Vitro - MC38.K (MC38.K Cell Line)	Total Luciferin Signal (RLU) In Vitro - AML12 (AML12 Cell Line)	Total Luciferin Signal (RLU) In Vitro - B16F10 (B16F10 Cell Line)	Total Liver Tissue Luciferin Signal (Photons/s) In Vitro - CD1 (Liver)
CCCCCCCCC(CCCCCCCCF)OC(=O)CCCCCCCN(CCO)CCCCCC(=O)OCCCCCCC(C)C (stereo not drawn) [Compound 57, 1-fluoroheptadecan-9-yl 8-((2-hydroxyethyl)(6-((7-methyloctyl)oxy)-6-oxohexyl)amino)octanoate]	1.05E+10 Photons/s	1.42E+07 RLU	2.63E+06 RLU	1.27E+06 RLU	–
[2H]C([2H])(OC(=O)CCCN(C)C)C([2H])([2H])N(CCCCCCCC(=O)OCCCCCCCCC)CCCCCCCC(=O)OC(CCCCCCCC)CCCCCCCC [Compound 40, heptadecan-9-yl 8-((2-((4-(dimethylamino)butanoyl)oxy)ethyl-1,1,2,2-d4)(8-(nonyloxy)-8-oxooctyl)amino)octanoate]	1.12E+08 Photons/s	8.09E+06 RLU	4.13E+06 RLU	3.61E+06 RLU	–
CCCCCCCCC(CCCCCCCF)C(=O)OCCCCCCCN(CCO)CCCCCCCOC(=O)CCCCCCCC=C(C)C (stereo not drawn) [Compound 52, 7-((7-((2-(7-fluoroheptyl)decanoyl)oxy)heptyl)(2-hydroxyethyl)amino)heptyl 10-methylundec-9-enoate]	7.87E+09 Photons/s	4.31E+05 RLU	2.59E+05 RLU	2.53E+05 RLU	–
CCCCCCCCCOC(=O)CCCCCN(CCO)CCCCCCCC(=O)OC(CCCCCCCC)CCCCCCCF (stereo not drawn) [Compound 25]	2.05E+09 Photons/s	9.18E+05 RLU	1.09E+05 RLU	4.43E+05 RLU	–
CCCCCCCCC(CCCCCCCCF)OC(=O)CCCCCN(CCCCO)CCCCCC(=O)OCCCCCCCCCCC(C)C (stereo not drawn) [Compound 63, 1-fluoroheptadecan-9-yl 6-((4-hydroxybutyl)(6-((11-methyldodecyl)oxy)-6-oxohexyl)amino)hexanoate]	3.02E+09 Photons/s	1.35E+07 RLU	5.69E+05 RLU	6.91E+05 RLU	–
CCCCCCCCCCCOC(=O)CCCCCN(CCCCCCCC(=O)OC(CCCCCCCC)CCCCCC(C)C)CCOC(=O)CCCN(C)C (stereo not drawn) [Compound 19]	1.28E+08 Photons/s	1.90E+06 RLU	6.91E+05 RLU	1.27E+06 RLU	–
CCCCCCCCC(CCCCCCCCF)C(=O)OCCCCCCCN(CCO)CCCCCCCOC(=O)CCCCCCCCC(C)C (stereo not drawn) [Compound 60, 7-((7-((10-fluoro-2-octyldecanoyl)oxy)heptyl)(2-hydroxyethyl)amino)heptyl 10-methylundecanoate]	3.00E+09 Photons/s	5.21E+06 RLU	8.00E+05 RLU	3.17E+05 RLU	–
CCCCCCCCC(CCCCCCCC)OC(=O)CCCCCCCN(CCCCCCCC(=O)OCCCCCCCCC(C)C)CCOC(=O)CCCN(C)C [Compound 3]	8.57E+07 Photons/s	2.99E+06 RLU	3.82E+06 RLU	4.58E+06 RLU	–
CCCCCCCCCOC(=O)CCCCCN(CCO)CCCCCCCC(=O)OC(CCCCCCCC)CCCCCCCCF (stereo not drawn) [Compound 34]	1.89E+09 Photons/s	4.19E+05 RLU	1.56E+05 RLU	238754.8 RLU	–
CCCCCCCCC(CCCCCCCCF)OC(=O)CCCCCCCN(CCO)CCCCCCC(C)C(=O)OCCCCCCCCC(C)C (stereo not drawn) [Compound 66, 9-methyldecyl 8-((8-((1-fluoroheptadecan-9-yl)oxy)-8-oxooctyl)(2-hydroxyethyl)amino)-2-methyloctanoate]	9.44E+09 Photons/s	5.75E+06 RLU	1.16E+06 RLU	1.12E+06 RLU	–
CCCCCCCCC(CCCCCCCC)C(=O)OCCCCCCCN(CCCCCC(=O)OCCCCCCCCC(C)C)CCOC(=O)CCCN(C)CCO [Compound 8]	2.13E+08 Photons/s	3.40E+06 RLU	1.43E+05 RLU	9.69E+05 RLU	–
CCCCCCCCC(CCCCCCCCF)OC(=O)CCCCCN(CCCCO)CCCCC(C)C(=O)OCCCCCCCCCCC(C)C (stereo not drawn) [Compound 64, 11-methyldodecyl 6-((6-((1-fluoroheptadecan-9-yl)oxy)-6-oxohexyl)(4-hydroxybutyl)amino)-2-methylhexanoate]	4.39E+09 Photons/s	2.41E+07 RLU	1.02E+06 RLU	1.10E+06 RLU	–
[2H]C([2H])(O)C([2H])([2H])N(CCCCCCCC(=O)OCCCCCCCCC)CCCCCCCC(=O)OC(CCCCCCCC)CCCCCCCC [Compound 39, heptadecan-9-yl 8-((2-hydroxyethyl-1,1,2,2-d4)(8-(nonyloxy)-8-oxooctyl)amino)octanoate]	–	8.82E+05 RLU	6.92E+05 RLU	3.58E+05 RLU	7.86E+06 Photons/s
CCCCCCCCCC(=O)OCCCCCCCN(CCO)CCCCCCCC(=O)OC(CCCCCCCC)CCCCCCCCF (stereo not drawn) [Compound 32]	3.13E+09 Photons/s	4.43E+05 RLU	1.53E+05 RLU	2.09E+05 RLU	–
CCCCCCCCC(CCCCCCCCF)OC(=O)CCCCCCCN(CCO)CCCCCC(=O)OC(CCCCCCCC)CCCCCCCC (stereo not drawn) [Compound 35]	1.51E+10 Photons/s	4.52E+05 RLU	1.57E+05 RLU	4.43E+05 RLU	–
CCCCCCCCCC(=O)OCCCCCCCN(CCO)CCCCCCCOC(=O)C(CCCCCCCC)CCCCCCCF (stereo not drawn) [Compound 27]	5.60E+09 Photons/s	2.37E+05 RLU	3.02E+05 RLU	6.19E+04 RLU	–
CCCCCCCCCCCCN(CCO)CCCCCC(=O)OCCCCCCCCCCC [Compound 42]	–	5.65E+04 RLU	2.36E+04 RLU	1.91E+04 RLU	2.04E+06 Photons/s
CCCCCCCCC(CCCCCCCF)OC(=O)CCCCCCCN(CCO)CCCCCC(=O)OCCCCCCC(C)C (stereo not drawn) [Compound 26]	5.54E+09 Photons/s	2.33E+05 RLU	1.95E+05 RLU	1.73E+05 RLU	–
CCCCCCCCC(CCCCCCCCF)OC(=O)CCCCCN(CCO)CCCCC(C)C(=O)OCCCCCCCCCCC(C)C (stereo not drawn) [Compound 65, 11-methyldodecyl 6-((6-((1-fluoroheptadecan-9-yl)oxy)-6-oxohexyl)(2-hydroxyethyl)amino)-2-methylhexanoate]	4.01E+09 Photons/s	3.81E+06 RLU	3.24E+05 RLU	3.78E+05 RLU	–
CCCCCCCCC(CCCCCCCC)OC(=O)CCCCCCCN(CCCCCCCOC(=O)CCCCCCCCC(C)C)CCOC(=O)CCCN(C)C [Compound 12]	4.15E+07 Photons/s	4.07E+06 RLU	7.43E+05 RLU	2.79E+06 RLU	–
CCCCCCCCC(CCCCCCCC)C(=O)OCCCCCCCN(CCO)CCCCCCCOC(=O)CCCCCCCCC(C)C [Compound 14]	1.93E+09 Photons/s	4.71E+06 RLU	2.94E+06 RLU	5.12E+06 RLU	–
